The target in test [1] is T1, aromatase enzyme (Homo sapiens, UniProt P11511).
T1 sequence (P11511 1-503): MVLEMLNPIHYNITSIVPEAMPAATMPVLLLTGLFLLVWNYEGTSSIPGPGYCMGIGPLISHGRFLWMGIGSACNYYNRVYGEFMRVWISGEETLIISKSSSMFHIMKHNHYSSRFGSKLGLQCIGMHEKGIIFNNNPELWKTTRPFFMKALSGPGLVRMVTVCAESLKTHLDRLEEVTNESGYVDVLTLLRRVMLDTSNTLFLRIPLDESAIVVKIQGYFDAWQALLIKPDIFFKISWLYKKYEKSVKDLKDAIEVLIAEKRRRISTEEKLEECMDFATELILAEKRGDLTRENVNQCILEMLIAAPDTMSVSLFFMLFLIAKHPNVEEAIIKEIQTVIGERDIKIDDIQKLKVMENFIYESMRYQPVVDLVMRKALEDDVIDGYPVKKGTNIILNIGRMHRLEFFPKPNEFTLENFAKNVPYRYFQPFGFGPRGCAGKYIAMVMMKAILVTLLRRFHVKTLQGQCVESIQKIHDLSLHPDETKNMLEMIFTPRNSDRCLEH
Put plainly: aromatase enzyme inhibition (Ki). Format: biochemical. How it is done: ATD acts as a suicide substrate by irreversibly binding to the aromatase enzyme and shutting down its activity. Because it is a non-androgenic compound, ATD has fewer side effects associated with anabolic/androgenic steroid use. […] A lower Ki value means the inhibitor binds more tightly to the enzyme and yields greater potency. […] Because it is administered in smaller doses, costs of use of ATD may also be lower. The savings may be passed on to the consumer and/or provide greater profits to the manufacturer. Additionally, with oral or percutaneous/transdermal doses of 25 mg to 150 mg per day in men, ATD will cause a significant increase in endogenous androgen levels with little or no decrease in endogenous estrogen.

Test [2] concerns the target T1, aromatase enzyme. The settings on record: inhibitor binding to the aromatase enzyme; from "recent studies"; cited from earlier work.

The term Ki denotes a dissociation constant, usually derived from enzyme kinetics or from competition with a known ligand.

Each structure is given as a SMILES string.

Turning to `C[C@]12C=CC(=O)C=C1C=C[C@@H]1[C@@H]2CC[C@]2(C)C(=O)CC[C@@H]12` [ATD, 1,4,6-androstatriene-3,17-dione], the “ratio of the Ki values (AT concentration relative to ATD for the same effect)” value at aromatase enzyme [1] is 2.39 times. For the molecule `C[C@]12CCC(=O)C=C1C(=O)C[C@@H]1[C@@H]2CC[C@]2(C)C(=O)CC[C@@H]12` [AT, androst-4-ene-3,6,17-trione], the Ki on aromatase enzyme [2] is 430 nM.

Values taken from patent US7939517B2, “1,4,6-androstatriene-3,17-dione (“ATD”) for therapeutic uses” (priority 2004, dated 2011).
